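Exposure lasted 48 hours, with cells grown in 96-well plates and compounds tested at five concentrations. TGI is the concentration that stops growth completely.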
Legend:
Test in all cases: NCI-60 cell line screen, 48 h
[1] = tested on: UO-31 renal
[2] = tested on: MALME-3M melanoma
[3] = tested on: RPMI-8226 leukemia
[4] = tested on: HL-60(TB) leukemia
[5] = tested on: NCI/ADR-RES ovarian
[6] = tested on: CAKI-1 renal
[7] = tested on: A498 renal
[8] = tested on: SW-620 colon
[9] = tested on: SR leukemia
[10] = tested on: NCI-H460 lung
[11] = tested on: PC-3 prostate
[12] = tested on: T-47D breast
[13] = tested on: TK-10 renal
[14] = tested on: KM12 colon
[15] = tested on: OVCAR-8 ovarian
[16] = tested on: CCRF-CEM leukemia
[17] = tested on: U251 CNS
[18] = tested on: LOX IMVI melanoma
[19] = tested on: K-562 leukemia
[20] = tested on: HCC-2998 colon
[21] = tested on: A549 NSCLC
[22] = tested on: SK-MEL-28 melanoma
[23] = tested on: HT29 colon
[24] = tested on: HCT-15 colon
[25] = tested on: BT-549 breast
[26] = tested on: DU-145 prostate
[27] = tested on: MDA-MB-231 breast
[28] = tested on: M14 melanoma
[29] = tested on: 786-0 renal
[30] = tested on: SK-MEL-5 melanoma
[31] = tested on: NCI-H522 lung
[32] = tested on: SF-295 CNS
[33] = tested on: HCT-116 colon
[34] = tested on: SF-539 CNS
[35] = tested on: NCI-H23 lung
[36] = tested on: MCF7 breast
[37] = tested on: HS 578T breast
[38] = tested on: RXF 393 renal
[39] = tested on: SNB-19 CNS
[40] = tested on: SNB-75 CNS
[41] = tested on: OVCAR-5 ovarian
[42] = tested on: SF-268 CNS
[43] = tested on: OVCAR-4 ovarian
[44] = tested on: SK-MEL-2 melanoma
[45] = tested on: SN12C renal
[46] = tested on: MOLT-4 leukemia
[47] = tested on: HOP-62 NSCLC
[48] = tested on: MDA-MB-435
[49] = tested on: EKVX NSCLC
[50] = tested on: NCI-H226 lung
[51] = tested on: MDA-N
[52] = tested on: OVCAR-3 ovarian
[53] = tested on: ACHN renal
[54] = tested on: UACC-62 melanoma
[55] = tested on: UACC-257 melanoma
[56] = tested on: IGROV1 ovarian
[57] = tested on: COLO 205 colon

Nc1ccc(Cc2ccc(N=Cc3ccc(OCc4cccc(COc5ccc(C=Nc6ccc(Cc7ccc(N)cc7)cc6)cc5)n4)cc3)cc2)cc1
TGI [1]: > 100 µM
TGI [2]: > 100 µM
TGI [3]: > 100 µM
TGI [4]: > 100 µM
TGI [5]: > 100 µM
TGI [6]: > 100 µM
TGI [7]: > 100 µM
TGI [8]: > 100 µM
TGI [9]: > 100 µM
TGI [10]: > 100 µM
TGI [11]: > 100 µM
TGI [12]: > 100 µM
TGI [13]: > 100 µM
TGI [14]: > 100 µM
TGI [15]: > 100 µM
TGI [16]: > 100 µM
TGI [17]: > 100 µM
TGI [18]: > 100 µM
TGI [19]: > 100 µM
TGI [20]: > 100 µM
TGI [21]: > 100 µM
TGI [22]: > 100 µM
TGI [23]: > 100 µM
TGI [24]: > 100 µM
TGI [25]: > 100 µM
TGI [26]: > 100 µM
TGI [27]: > 100 µM
TGI [28]: > 100 µM
TGI [29]: > 100 µM
TGI [30]: > 100 µM
TGI [31]: > 100 µM
TGI [32]: > 100 µM
TGI [33]: > 100 µM
TGI [34]: 26.6 µM
TGI [35]: > 100 µM
TGI [36]: > 100 µM
TGI [37]: > 100 µM
TGI [38]: 68 µM
TGI [39]: > 100 µM
TGI [40]: 39.7 µM
TGI [41]: > 100 µM
TGI [42]: > 100 µM
TGI [43]: > 100 µM
TGI [44]: > 100 µM
TGI [45]: > 100 µM
TGI [46]: > 100 µM
TGI [47]: > 100 µM
TGI [48]: > 100 µM
TGI [49]: > 100 µM
TGI [50]: > 100 µM
TGI [51]: > 100 µM
TGI [52]: > 100 µM
TGI [53]: > 100 µM
TGI [54]: > 100 µM
TGI [55]: > 100 µM
TGI [56]: > 100 µM
TGI [57]: > 100 µM

S=c1nc2sc3c(c2c(Nc2ccccc2)[nH]1)CCCC3
TGI [1]: > 100 µM
TGI [2]: > 100 µM
TGI [3]: > 100 µM
TGI [4]: > 100 µM
TGI [5]: > 100 µM
TGI [6]: > 100 µM
TGI [7]: > 100 µM
TGI [8]: > 100 µM
TGI [9]: > 100 µM
TGI [10]: > 100 µM
TGI [11]: > 100 µM
TGI [12]: > 100 µM
TGI [13]: > 100 µM
TGI [14]: > 100 µM
TGI [15]: > 100 µM
TGI [17]: > 100 µM
TGI [18]: > 100 µM
TGI [19]: > 100 µM
TGI [20]: > 100 µM
TGI [22]: > 100 µM
TGI [23]: > 100 µM
TGI [24]: > 100 µM
TGI [25]: > 100 µM
TGI [26]: > 100 µM
TGI [27]: > 100 µM
TGI [29]: > 100 µM
TGI [30]: > 100 µM
TGI [31]: > 100 µM
TGI [32]: > 100 µM
TGI [33]: > 100 µM
TGI [35]: > 100 µM
TGI [36]: > 100 µM
TGI [37]: > 100 µM
TGI [38]: > 100 µM
TGI [39]: > 100 µM
TGI [40]: > 100 µM
TGI [41]: > 100 µM
TGI [42]: > 100 µM
TGI [43]: > 100 µM
TGI [44]: > 100 µM
TGI [45]: > 100 µM
TGI [46]: > 100 µM
TGI [47]: > 100 µM
TGI [48]: > 100 µM
TGI [49]: > 100 µM
TGI [50]: > 100 µM
TGI [51]: > 100 µM
TGI [52]: > 100 µM
TGI [53]: > 100 µM
TGI [54]: > 100 µM
TGI [55]: > 100 µM
TGI [56]: > 100 µM
TGI [57]: > 100 µM
